Measurements from patent publication US10925856B2, “Methods and compositions involving bucindolol for the treatment of atrial fibrillation” (priority 2018, dated 2021).

Experiments:
[1] = target: T1, human β1-adrenergic receptor (Homo sapiens, UniProt P08588, G389R); assay: Estimated β1-AR receptor occupancy from plasma concentration and KD; conditions: 12 weeks trough plasma concentration
T1 construct: from tissue; host or cells: notional myocardial receptor of GENETIC-AF patients; no receptor preparation was assayed

NT-proBNP = assay: Plasma NT-proBNP (electrochemiluminescence immunoassay)
clinical = conditions: human, in vivo
Excerpt: Based on FDA interactions and recommendations^63 the inventor sought to categorize CYP2D6 genetic variation in every patient in GENETIC-AF.
CYP2D6 polymorphisms were identified using the xTAG® CYP2D6 Kit v3 manufactured by Luminex Corporation, with the assay performed by Esoterix, Boulder, Colo. on DNA extracted from whole blood by LabCorp's subsidiary Covance, of Salt Lake City, Utah See Table 41 in the Appendix for identified polymorphisms.
Sparse sampling of bucindolol hydrochloride plasma concentrations for population pharmacokinetic analysis. The analysis plan for the substudy will be prepared separately prior to unblinding.

[2] = target: human β1-adrenergic receptor (Homo sapiens, UniProt P08588); conditions: cited from earlier work
[3] = system: patients with HF and/or AF; assay: Literature β-blocker trials and meta-analyses for AF prevention / recurrence; assay type: in vivo, human
[4] = system: advanced HFrEF patients (ADRB1 Arg389Gly / ADRA2C Ins322-325Del genotypes); assay: BEST trial and DNA (pharmacogenetic) substudy: bucindolol vs. placebo; assay type: in vivo, human
Excerpt: The relationship of the ADRA2C Ins/Del polymorphism to systemic NE levels and clinical outcomes was investigated as part of the BEST trial AR polymorphism substudy.
Variables identified in the GENETIC-AF Statistical Analysis Plan (SAP) that were potential predictors of the primary endpoint were investigated by precision therapeutic phenotyping. Hypothesis-based (e.g., AF duration, AF type, LVEF, NYHA Class, NT-proBNP, norepinephrine) and hypothesis-free (e.g. HF duration, initial study dose) elements were included in the multivariate methodology, which was applied to both obvious and non-obvious data to identify a therapeutic phenotype appropriate for investigating in Phase 3. To examine the relationship between HF duration and bucindolol effectiveness for reducing HF events, we analyzed data from the BEST trial (14) and pharmacogenetic substudy (17) for the endpoint of time to all-cause mortality or first HF hospitalization (ACM/HFH).

[5] = Europe excluding Hungary (n = 48)
[6] = change from baseline, Canada (n = 59)
[7] = change from baseline, Entire Cohort (n = 267)
[8] = change from baseline, Europe excluding Hungary (n = 48)
[9] = change from baseline, Hungary (n = 33)
[10] = change from baseline, U.S. (n = 127)
[11] = BEST ADRB1 389Gly Carriers n = 482
[12] = BEST ADRB1 Arg389Arg, free of AF at randomization
[13] = BEST ADRB1 Arg389Arg, free of AF at randomization, bucindolol vs placebo
[14] = BEST DNA substudy all genotypes n = 1040

T1 sequence (P08588 whole entry G389R): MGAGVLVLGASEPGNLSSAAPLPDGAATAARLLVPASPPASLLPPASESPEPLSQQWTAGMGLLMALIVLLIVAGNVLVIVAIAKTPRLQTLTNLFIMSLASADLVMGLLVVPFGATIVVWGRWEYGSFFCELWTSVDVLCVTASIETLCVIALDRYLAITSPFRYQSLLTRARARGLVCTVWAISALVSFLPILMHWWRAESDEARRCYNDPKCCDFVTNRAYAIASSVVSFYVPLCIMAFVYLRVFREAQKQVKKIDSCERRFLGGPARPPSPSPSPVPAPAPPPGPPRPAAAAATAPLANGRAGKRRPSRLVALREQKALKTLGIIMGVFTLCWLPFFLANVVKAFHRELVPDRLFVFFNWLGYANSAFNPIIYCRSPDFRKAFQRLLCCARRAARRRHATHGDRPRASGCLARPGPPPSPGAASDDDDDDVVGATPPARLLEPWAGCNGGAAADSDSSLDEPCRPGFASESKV
Sequence of human β1-adrenergic receptor (Homo sapiens, UniProt P08588) (P08588 whole entry): as the sequence (P08588 whole entry G389R) above, with R389G counted along it

## CC(C)(Cc1c[nH]c2ccccc12)NCC(O)COc1ccccc1C#N (centres unmarked) [bucindolol, 2-(3-(1-(1H-indol-3-yl)-2-methylpropan-2-ylamino)-2-hydroxypropoxy)benzonitrile]
[1]; CYP2D6 EMs
  β1-AR receptor occupancy: 85.2%
[1]; CYP2D6 IMs
  β1-AR receptor occupancy: 94.6%
[1]; CYP2D6 PMs
  β1-AR receptor occupancy: 99.0%
NT-proBNP; Canada
  NT-proBNP, Week 4 Mean: 859 pg/mL
  NT-proBNP, Week 4 Median: 499 pg/mL
  NT-proBNP, ΔWeek 4 Mean ± SEM: -455 pg/mL
  NT-proBNP, ΔWeek 4 Median: -184 pg/mL
NT-proBNP; Canada (n = 59)
  NT-proBNP, Baseline Mean ± SD: 1314 ± 1503 pg/mL
  NT-proBNP, Baseline Median: 790 pg/mL
  NT-proBNP, Week 12 Mean ± SD: 674 ± 767 pg/mL
  NT-proBNP, Week 12 Median: 432 pg/mL
  NT-proBNP, Week 24 Mean ± SD: 831 ± 961 pg/mL
  NT-proBNP, Week 24 Median: 425 pg/mL
NT-proBNP; Entire Cohort
  NT-proBNP, Week 4 Mean: 1196 pg/mL
  NT-proBNP, Week 4 Median: 613 pg/mL
  NT-proBNP, ΔWeek 4 Mean ± SEM: -0.4 pg/mL
  NT-proBNP, ΔWeek 4 Median: -96 pg/mL
NT-proBNP; Entire Cohort (n = 267)
  NT-proBNP, Baseline Mean ± SD: 1159 ± 1306 pg/mL
  NT-proBNP, Baseline Median: 777 pg/mL
  NT-proBNP, Week 12 Mean ± SD: 1052 ± 1923 pg/mL
  NT-proBNP, Week 12 Median: 470 pg/mL
  NT-proBNP, Week 24 Mean ± SD: 1135 ± 1632 pg/mL
  NT-proBNP, Week 24 Median: 502 pg/mL
NT-proBNP; Europe excluding Hungary
  NT-proBNP, Week 4 Mean: 756 pg/mL
  NT-proBNP, Week 4 Median: 431 pg/mL
  NT-proBNP, ΔWeek 4 Mean ± SEM: -72 pg/mL
  NT-proBNP, ΔWeek 4 Median: -108 pg/mL
NT-proBNP; [5]
  NT-proBNP, Baseline Mean ± SD: 893 ± 849 pg/mL
  NT-proBNP, Baseline Median: 600 pg/mL
  NT-proBNP, Week 12 Mean ± SD: 782 pg/mL
  NT-proBNP, Week 12 Median: 376 pg/mL
  NT-proBNP, Week 24 Mean ± SD: 1859 pg/mL
  NT-proBNP, Week 24 Median: 593 pg/mL
NT-proBNP; Hungary
  NT-proBNP, Week 4 Mean: 1616 pg/mL
  NT-proBNP, Week 4 Median: 594 pg/mL
  NT-proBNP, ΔWeek 4 Mean ± SEM: +461 pg/ml
  NT-proBNP, ΔWeek 4 Median: -47 pg/mL
NT-proBNP; Hungary (n = 33)
  NT-proBNP, Baseline Mean ± SD: 989 ± 1428 pg/mL
  NT-proBNP, Baseline Median: 567 pg/mL
  NT-proBNP, Week 12 Mean ± SD: 1095 ± 1929 pg/mL
  NT-proBNP, Week 12 Median: 446 pg/mL
  NT-proBNP, Week 24 Mean ± SD: 1244 ± 2515 pg/mL
  NT-proBNP, Week 24 Median: 244 pg/mL
NT-proBNP; U.S.
  NT-proBNP, Week 4 Mean: 1501 pg/mL
  NT-proBNP, Week 4 Median: 796 pg/mL
  NT-proBNP, ΔWeek 4 Mean ± SEM: +182 pg/ml
  NT-proBNP, ΔWeek 4 Median: -75 pg/mL
NT-proBNP; U.S. (n = 127)
  NT-proBNP, Baseline Mean ± SD: 1245 ± 1332 pg/mL
  NT-proBNP, Baseline Median: 904 pg/mL
  NT-proBNP, Week 12 Mean ± SD: 1383 ± 2538 pg/mL
  NT-proBNP, Week 12 Median: 561 pg/mL
  NT-proBNP, Week 24 Mean ± SD: 1124 ± 1516 pg/mL
  NT-proBNP, Week 24 Median: 653 pg/mL
NT-proBNP; Week 24, Canadian cohort
  NT-proBNP decrease: −39%
  NT-proBNP decrease relative to that in the metoprolol group: ~3 fold
NT-proBNP; [6]
  NT-proBNP, ΔWeek 12 Mean ± SEM: -602 ± 232 pg/mL
  NT-proBNP, ΔWeek 12 Median: -176 pg/mL
  NT-proBNP, ΔWeek 24 Mean ± SEM: -442 ± 223 pg/mL
  NT-proBNP, ΔWeek 24 Median: -271 pg/mL
NT-proBNP; [7]
  NT-proBNP, ΔWeek 12 Mean ± SEM: -108 ± 133 pg/mL
  NT-proBNP, ΔWeek 12 Median: -96 pg/mL
  NT-proBNP, ΔWeek 24 Mean ± SEM: -92 ± 136 pg/mL
  NT-proBNP, ΔWeek 24 Median: -197 pg/mL
NT-proBNP; [8]
  NT-proBNP, ΔWeek 12 Mean ± SEM: -101 pg/mL
  NT-proBNP, ΔWeek 12 Median: -92 pg/mL
  NT-proBNP, ΔWeek 24 Mean ± SEM: +983 pg/ml
  NT-proBNP, ΔWeek 24 Median: -48 pg/mL
NT-proBNP; [9]
  NT-proBNP, ΔWeek 12 Mean ± SEM: +40 ± 170 pg/ml
  NT-proBNP, ΔWeek 12 Median: -96 pg/mL
  NT-proBNP, ΔWeek 24 Mean ± SEM: +41 ± 276 pg/ml
  NT-proBNP, ΔWeek 24 Median: -176 pg/mL
NT-proBNP; [10]
  NT-proBNP, ΔWeek 12 Mean ± SEM: +130 ± 262 pg/ml
  NT-proBNP, ΔWeek 12 Median: -81 pg/mL
  NT-proBNP, ΔWeek 24 Mean ± SEM: -163 ± 161 pg/mL
  NT-proBNP, ΔWeek 24 Median: -315 pg/mL
NT-proBNP; change from baseline, entire cohort
  NT-proBNP, ΔWeek 4 Median: -96 pg/mL
NT-proBNP; end of the 24-week follow-up period, U.S.
  NT-proBNP decrease: 33%
NT-proBNP; week 4, entire cohort
  NT-proBNP decrease from baseline: 96 pg/mL
NT-proBNP; week 12, entire cohort
  NT-proBNP decrease from baseline: 96 pg/mL
NT-proBNP; week 24, entire cohort
  NT-proBNP decrease relative to baseline: 197 pg/mL
clinical; 12 weeks
  Plasma concentration in PMs relative to IMs: 5.7 fold
clinical; Drug levels as measured in PMs
  concentration at 12 weeks: 200 to 500 nM
[2]
  KD (KA in the occupancy formula), dissociation constant for human β1-ARs: 3.6 nM
[3]; RES = Ln HzR1/Ln HzR2, prevention of AF in HFrEF
  Predicted relative effect size in favor of bucindolol vs. metoprolol: 2.1 fold
[3]; from relative effect size
  Effect size in a direct comparison of bucindolol to metoprolol (estimated): 51%
  Risk ratio in a direct comparison of bucindolol to metoprolol (estimated): 0.49
[4]; [11]
  Events/patients (rate), time to AF/AFL/ACM: (26.8%)
  Events/patients, time to AF/AFL/ACM: 61/228
[4]; BEST ADRB1 389Gly Carriers, bucindolol vs placebo
  Hazard Ratio (95% C.I.), time to AF/AFL/ACM: 0.95
[4]; BEST ADRB1 Arg389Arg n = 435
  Events/patients (rate), time to AF/AFL/ACM: (18.5%)
  Events/patients, time to AF/AFL/ACM: 43/232
[4]; [12]
  ACM events: 33
  ACM events/pt (%): 14.0%
  ACM/CVH events: 106
  ACM/CVH events/pt (%): 45.1%
  ACM/HFH events: 82
  ACM/HFH events/pt (%): 34.9%
  CVH events: 88
  CVH events/pt (%): 37.5%
  CVM events: 25
  CVM events/pt (%): 10.6%
  CVM/HFH events: 76
  CVM/HFH events/pt (%): 32.3%
  HFH events: 65
  HFH events/pt (%): 27.7%
[4]; [13]
  ACM HzR: 0.61
  ACM/CVH HzR: 0.72
  ACM/HFH HzR: 0.69
  CVH HzR: 0.69
  CVM HzR: 0.54
  CVM/HFH HzR: 0.66
  HFH HzR: 0.70
[4]; BEST ADRB1 Arg389Arg, bucindolol vs placebo
  Hazard Ratio (95% C.I.), time to AF/AFL/ACM: 0.49
[4]; [14]
  Events/patients (rate), time to AF/AFL/ACM: (22.6%)
  Events/patients, time to AF/AFL/ACM: 104/460
[4]; BEST DNA substudy all genotypes, bucindolol vs placebo
  Hazard Ratio (95% C.I.), time to AF/AFL/ACM: 0.70
[4]; BEST Entire Cohort n = 2708
  Events/patients (rate), time to AF/AFL/ACM: (33.6%)
  Events/patients, time to AF/AFL/ACM: 401/1193
[4]; BEST Entire Cohort, bucindolol vs placebo
  Hazard Ratio (95% C.I.), time to AF/AFL/ACM: 0.80
